For one assay, the target named is His-tagged KRAS G12D protein (Homo sapiens, UniProt P01116, G12D). The assay is described as follows: KRAS G12D TR-FRET assay (binding). Particulars: biotinylated KRPep-2d substrate, GDP in assay buffer. A general note: TR-FRET usually uses a lanthanide donor and a delayed reading to cut background.
Sequence of His-tagged KRAS G12D protein (P01116 1-188 isoform P01116-2 G12D): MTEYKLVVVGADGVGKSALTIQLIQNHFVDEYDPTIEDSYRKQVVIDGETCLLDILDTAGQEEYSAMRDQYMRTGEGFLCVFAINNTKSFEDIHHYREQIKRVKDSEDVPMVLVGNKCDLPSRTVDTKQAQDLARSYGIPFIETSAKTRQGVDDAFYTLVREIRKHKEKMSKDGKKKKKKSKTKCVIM
Method: The plate was incubated for 30 minutes at room temperature. Biotinylated KRPep-2d substrate (Amgen) was diluted to 20 nM in Assay Buffer and 2 L was added to all wells and incubated for 1 hour at room temperature. Detection Reagent (0.4 nM LANCE Eu-W1024 Anti-6xHis (Perkin Elmer AD0401), 5 nM streptavidin-d^2 (Cisbio 610SADLA)) was prepared in Assay Buffer, then 4 μL was added to the plate and incubated for 1 hour at room temperature.
Take `CCc1c(F)ccc2cc(O)cc(-c3ncc4c(N5CCOCC5)nc(OC[C@@]56CCCN5C[C@H](F)C6)nc4c3F)c12` [Example 24, 5-Ethyl-6-fluoro-4-(8-fluoro-2-(((2R,7aS)-2-fluorotetrahydro-1H-pyrrolizin-7a(5H)-yl)methoxy)-4-morpholinopyrido [4,3-d]pyrimidin-7-yl)naphthalen-2-ol]: the IC50 (usually the point on the concentration scale where inhibition reaches its midpoint) was found to be 11 nM.

In turn, `CCc1c(F)ccc2cc(O)cc(-c3ncc4c(N5CCOC(CC#N)C5)nc(OC[C@@]56CCCN5C[C@H](F)C6)nc4c3F)c12` (stereo partly drawn) [Example 65, 2-(4-(7-(8-Ethyl-7-fluoro-3-hydroxy-naphthalen-1-yl)-8-fluoro-2-(((2R,7aS)-2-fluorotetrahydro-1H-pyrrolizin-7a(5H)-yl)methoxy)-pyrido[4,3-d]pyrim-idin-4-yl)morpholin-2-yl)acetonitrile] showed a 50% inhibitory concentration (IC50) of 43 nM.

Consider `CCc1c(F)ccc2cc(O)cc(-c3ncc4c(N5CCCOCC5)nc(OCC5(C)CCC(=O)N5)nc4c3F)c12` (stereo not shown) [Example 30, 5-(((7-(8-ethyl-7-fluoro-3-hydroxynaphthalen-1-yl)-8-fluoro-4-(1,4-oxazepan-4-yl)pyrido[4,3-d]pyrimidin-2-yl)oxy)methyl)-5-methylpyrrolidin-2-one], for which the IC50 stood at 37 nM.

For `Oc1cc(Cl)c(C2CC2)c(-c2ncc3c(N4CCCOCC4)nc(OCC4(CN5CCOCC5)CC4)nc3c2F)c1` [Example 22, 3-Chloro-4-cyclopropyl-5-(8-fluoro-2-((1-(morpholinomethyl)cyclopropyl)methoxy)-4-(1,4-oxazepan-4-yl)pyrido[4,3-d]pyrimidin-7-yl)phenol], the half-maximal inhibitory concentration (IC50) was 11 nM.

`CCc1c(F)ccc2cc(O)cc(-c3ncc4c(N5CC6CC(C#N)C(C5)O6)nc(OC[C@@]56CCCN5C[C@H](F)C6)nc4c3F)c12` (single isomer, unassigned) [Example 72] had an IC50 of 6 nM.

In turn, `CCc1c(F)ccc2cc(O)cc(-c3ncc4c(N5CCCOCC5)nc(OCC5(C#N)CCN(C)C5)nc4c3F)c12` (stereo not shown) [Example 33, 3-(((7-(8-ethyl-7-fluoro-3-hydroxynaphthalen-1-yl)-8-fluoro-4-(1,4-oxazepan-4-yl)pyrido[4,3-d]pyrimidin-2-yl)oxy)methyl)-1-methylpyrrolidine-3-carbonitrile] had an IC50 of 27 nM.

As for `CCc1c(F)ccc2cc(O)cc(-c3ncc4c(N5CCCOC(C(=O)NC)C5)nc(OC[C@@]56CCCN5C[C@H](F)C6)nc4c3F)c12` (single isomer, unassigned) [Example 42], the half-maximal inhibitory concentration (IC50) amounted to 2 nM.

Take `CCc1c(F)ccc2cc(O)cc(-c3ncc4c(N5CCOCC[C@@H]5C)nc(OC[C@@]56CCCN5C[C@H](F)C6)nc4c3F)c12` [Example 55, 5-Ethyl-6-fluoro-4-(8-fluoro-2-(((2R, 7aS)-2-fluorotetra-hydro-1H-pyrrol-izin-7a(5H)-yl)-methoxy)-4-((S)-5-methyl-1,4-oxazepan-4-yl)-pyrido[4,3-d]pyrimidin-7-yl)-naphthalen-2-ol]: the IC50 was found to be 7 nM.

Consider `CCc1c(F)ccc2cc(O)cc(-c3ncc4c(N5CC6COCC(C5)C6O)nc(OC[C@@]56CCCN5C[C@H](F)C6)nc4c3F)c12` (stereo partly drawn) [Example 58, 7-(7-(8-Ethyl-7-fluoro-3-hydroxy-naphthalen-1-yl)-8-fluoro-2-(((2R,7aS)-2-fluorotetrahydro-1H-pyrrolizin-7a(5H)-yl)meth-oxy)pyrido[4,3-d]pyrimidin-4-yl)-3-oxa-7-azabicyclo [3.3.1]nonan-9-ol], for which the half-inhibitory concentration (IC50) worked out at 14 nM.

In turn, `CCc1c(F)ccc2cc(O)cc(-c3ncc4c(N5CCOCC[C@H]5C)nc(OC[C@@]56CCCN5C[C@H](F)C6)nc4c3F)c12` [Example 54, 5-Ethyl-6-fluoro-4-(8-fluoro-2-(((2R,7aS)-2-fluorotetrahydro-1H-pyrrolizin-7a(5H)-yl)methoxy)-4-((R)-5-methyl-1,4-oxazepan-4-yl)pyrido[4,3-d]pyrimidin-7-yl)naphthalen-2-ol] showed an IC50 of 7 nM.

`CCc1c(F)ccc2cc(O)cc(-c3ncc4c(N5CCOCC(C(N)=O)C5)nc(OC[C@@]56CCCN5C[C@H](F)C6)nc4c3F)c12` (single isomer, unassigned) [Example 46] gave an IC50 of 17 nM.

`CCc1c(F)ccc2cc(O)cc(-c3ncc4c(N5CCCOCC5)nc(OCC5(CO)CC5)nc4c3F)c12` [Example 77, 5-Ethyl-6-fluoro-4-(8-fluoro-2-((1-(hydroxymethyl)cyclopropyl)methoxy)-4-(1,4-oxazepan-4-yl)pyrido[4,3-d]pyrimidin-7-yl)naphthalen-2-ol]: the half-inhibitory concentration (IC50) worked out at 41 nM.

`CCc1c(F)ccc2cc(O)cc(-c3ncc4c(N5CCOCC(C(=O)NC)C5)nc(OC[C@@]56CCCN5C[C@H](F)C6)nc4c3F)c12` (single isomer, unassigned) [Example 44] had a half-maximal inhibitory concentration (IC50) of 26 nM.

On to `CCc1c(F)ccc2cc(O)cc(-c3ncc4c(N5CCOC(CO)C5)nc(OC[C@@]56CCCN5C[C@H](F)C6)nc4c3F)c12` (stereo partly drawn) [Example 60, 5-Ethyl-6-fluoro-4-(8-fluoro-2-(((2R, 7aS)-2-fluorotetra-hydro-1H-pyrrol-izin-7a(5H)-yl)-methoxy)-4-(2-(hydroxymethyl)-morpholino)pyrido [4,3-d]pyrimidin-7-yl)naphthalen-2-ol], for which the 50% inhibitory concentration (IC50) worked out at 15 nM.

`CCc1c(F)ccc2cc(O)cc(-c3ncc4c(N5C[C@H]6CCC[C@@H](C5)O6)nc(OC[C@@]56CCCN5C[C@H](F)C6)nc4c3F)c12` [Example 64, 4-(4-((1R,5S)-9-oxa-3-azabicyclo [3.3.1]nonan-3-yl)-8-fluoro-2-(((2R, 7aS)-2-fluorotetra-hydro-1H-pyrrolizin-7a(5H)-yl)methoxy)-pyrido[4,3-d]pyrim-idin-7-yl)-5-ethyl-6-fluoronaphthalen-2-ol] came in with a 50% inhibitory concentration (IC50) of 44 nM.

As for `CCc1c(F)ccc2cc(O)cc(-c3ncc4c(N5CCCOC(C(=O)NC)C5)nc(OC[C@@]56CCCN5C[C@H](F)C6)nc4c3F)c12` (single isomer, unassigned) [Example 43], the half-maximal inhibitory concentration (IC50) turned out to be 249 nM.

Compound `CCc1c(F)ccc2cc(O)cc(-c3ncc4c(N5CCSC(CO)C5)nc(OC[C@@]56CCCN5C[C@H](F)C6)nc4c3F)c12` (stereo partly drawn) [Example 40, 5-Ethyl-6-fluoro-4-(8-fluoro-2-(((2R,7aS)-2-fluorotetrahydro-1H-pyrrolizin-7a(5H)-yl)methoxy)-4-(2-(hydroxymethyl)thiomorpholino)pyrido[4,3-d]pyrimidin-7-yl)naphthalen-2-ol] yielded an IC50 of 6 nM.

Compound `CCc1c(F)ccc2cc(O)cc(-c3ncc4c(N5CCCOCC5)nc(OCC5(C#N)CCNC5)nc4c3F)c12` (stereo not shown) [Example 31, 3-(((7-(8-ethyl-7-fluoro-3-hydroxynaphthalen-1-yl)-8-fluoro-4-(1,4-oxazepan-4-yl)pyrido[4,3-d]pyrimidin-2-yl)oxy)methyl) pyrrolidine-3-carbonitrile] showed a concentration for half-maximal inhibition (IC50) of 11 nM.

The compound `CCc1c(F)ccc2cc(O)cc(-c3ncc4c(N5CCOC(C(F)F)C5)nc(OC[C@@]56CCCN5C[C@H](F)C6)nc4c3F)c12` (stereo partly drawn) [Example 75, 4-(4-(2-(Difluoromethyl)morpholino)-8-fluoro-2-(((2R,7aS)-2-fluorotetrahydro-1H-pyrrolizin-7a(5H)-yl)methoxy)pyrido[4,3-d]pyrimidin-7-yl)-5-ethyl-6-fluoronaphthalen-2-ol] showed an IC50 of 52 nM.

Another assay relates to Phosphorylation of ERK1/2 in AsPC-1 cells. The assay is described as follows: Phospho-ERK1/2 MSD assay. Particulars: Homo sapiens, ASPC1, read-out: 2 h p-ERK (AsPC-1 cells), IC50 (μM), 2 hours compound treatment. It counts as cell-based. The procedure: Sixteen hours prior to compound treatment, AsPC-1 cells were seeded in 96-well cell culture plates at a density of 25,000 cells/well and incubated at 37° C., 5% CO2. A compound dose-response titration was diluted in growth media, added to appropriate wells of a cell culture plate, and then incubated at 37° C., 5% CO2 for 2 hours.
In the case of `CCc1c(F)ccc2cc(O)cc(-c3ncc4c(N5CCOCC5)nc(OC[C@@]56CCCN5C[C@H](F)C6)nc4c3F)c12` [Example 24, 5-Ethyl-6-fluoro-4-(8-fluoro-2-(((2R,7aS)-2-fluorotetrahydro-1H-pyrrolizin-7a(5H)-yl)methoxy)-4-morpholinopyrido [4,3-d]pyrimidin-7-yl)naphthalen-2-ol], the 50% inhibitory concentration (IC50) came out at 0.586 µM.

On to `Oc1cc(Cl)c(C2CC2)c(-c2ncc3c(N4CCCOCC4)nc(OCC4(CN5CCOCC5)CC4)nc3c2F)c1` [Example 22, 3-Chloro-4-cyclopropyl-5-(8-fluoro-2-((1-(morpholinomethyl)cyclopropyl)methoxy)-4-(1,4-oxazepan-4-yl)pyrido[4,3-d]pyrimidin-7-yl)phenol], for which the half-maximal inhibitory concentration (IC50) was determined as 1.29 µM.

Regarding `CCc1c(F)ccc2cc(O)cc(-c3ncc4c(N5CC6CC(C#N)C(C5)O6)nc(OC[C@@]56CCCN5C[C@H](F)C6)nc4c3F)c12` (single isomer, unassigned) [Example 72], the IC50 is 0.308 µM.

Consider `CCc1c(F)ccc2cc(O)cc(-c3ncc4c(N5CCCOCC5)nc(OC[C@]56CCCN5C[C@H](F)C6)nc4c3F)c12` [Example 41, 5-ethyl-6-fluoro-4-(8-fluoro-2-(((2R, 7aR)-2-fluorotetra-hydro-1H-pyrrol-izin-7a(5H)-yl)-methoxy)-4-(1,4-oxazepan-4-yl)pyr-ido[4,3-d]pyrimi-din-7-yl)naphtha-len-2-ol], for which the half-inhibitory concentration (IC50) worked out at 0.035 µM.

Regarding `CCc1c(F)ccc2cc(O)cc(-c3ncc4c(N5CCOC[C@H](O)C5)nc(OC[C@@]56CCCN5C[C@H](F)C6)nc4c3F)c12` [Example 26, (R)-4-(7-(8-Ethyl-7-fluoro-3-hydroxynaphthalen-1-yl)-8-fluoro-2-(((2R,7aS)-2-fluorotetrahydro-1H-pyrrolizin-7a(5H)-yl)methoxy)pyrido [4,3-d]pyrimidin-4-yl)-1,4-oxazepan-6-ol], the half-inhibitory concentration (IC50) was 2.27 µM.

For the compound `CCc1c(F)ccc2cc(O)cc(-c3ncc4c(N5CCOC[C@@H](CO)C5)nc(OC[C@@]56CCCN5C[C@H](F)C6)nc4c3F)c12` [Example 50, 5-Ethyl-6-fluoro-4-(8-fluoro-2-(((2R, 7aS)-2-fluorotetra-hydro-1H-pyrrol-izin-7a(5H)-yl)-methoxy)-4-((R)-6-(hydroxymeth-yl)-1,4-oxazepan-4-yl)pyrido[4,3-d]pyrimidin-7-yl)-naphthalen-2-ol], the IC50 amounted to 0.07 µM.

In the case of `CCc1c(F)ccc2cc(O)cc(-c3ncc4c(N5CCOC[C@@H](O)C5)nc(OC[C@@]56CCCN5C[C@H](F)C6)nc4c3F)c12` [Example 25, (S)-4-(7-(8-Ethyl-7-fluoro-3-hydroxynaphthalen-1-yl)-8-fluoro-2-(((2R,7aS)-2-fluorotetrahydro-1H-pyrrolizin-7a(5H)-yl)methoxy)pyrido [4,3-d]pyrimidin-4-yl)-1,4-oxazepan-6-ol], the half-inhibitory concentration (IC50) stood at 0.292 µM.

For the compound `CCc1c(F)ccc2cc(O)cc(-c3ncc4c(N5CCOCC(C)(O)C5)nc(OC[C@@]56CCCN5C[C@H](F)C6)nc4c3F)c12` (single isomer, unassigned) [Example 69], the IC50 turned out to be 0.004 µM.

In the case of `Oc1cc(-c2ncc3c(N4CCCOCC4)nc(OC[C@@]45CCCN4C[C@H](F)C5)nc3c2F)c2ccccc2c1` [Example 14, 4-(8-Fluoro-2-(((2R,7aS)-2-fluorotetrahydro-1H-pyrrolizin-7a(5H)-yl)methoxy)-4-(1,4-oxazepan-4-yl)pyrido[4,3-d]pyrimidin-7-yl)naphthalen-2-ol], the IC50 turned out to be 0.794 µM.
